Consider two compounds from US20250353835A1, “N-TETRAZOLYL ARYL UREA-BASED DERIVATIVES, PREPARATION METHOD THEREFOR, AND USE THEREOF” (Hangzhou Yirui Pharmaceutical Technology Co., Ltd, priority 2022, published 2025).

One data set deals with T1, human B1R (Homo sapiens, UniProt P46663).
T1 construct: host or cells: HEK293
T1 sequence (P46663 1-353): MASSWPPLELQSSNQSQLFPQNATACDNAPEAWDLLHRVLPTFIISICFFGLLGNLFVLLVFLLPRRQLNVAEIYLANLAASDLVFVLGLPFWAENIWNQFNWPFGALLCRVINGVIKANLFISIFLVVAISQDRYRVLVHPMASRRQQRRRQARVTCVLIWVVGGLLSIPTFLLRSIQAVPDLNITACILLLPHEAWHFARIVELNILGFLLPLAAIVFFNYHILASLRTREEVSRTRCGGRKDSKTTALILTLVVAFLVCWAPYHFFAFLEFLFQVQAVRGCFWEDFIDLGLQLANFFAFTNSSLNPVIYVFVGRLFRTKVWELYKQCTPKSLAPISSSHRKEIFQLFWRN
Briefly: FLIPR calcium ion flux assay, inhibitory activity against human B1R. As to conditions: HEK293 cells stably expressing human B1R; agonist [Lys-des-Arg9]-Bradykinin 4.6 nM (EC80); FLIPR method. The format is cell-based. The method, boiled down: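 HEK293 cells stably expressing human B1R, loaded with Fluo-4 Direct plus probenecid; compounds 9-point 1:5 series from 30 μM, duplicate, preincubated 10 min. Stimulation with [Lys-des-Arg9]-bradykinin at 4.6 nM final (EC80); peak fluorescence at 538 nm gave IC50.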

Data set [1] can be described thus: Drug concentration in rat retinas after intraocular injection (HPLC). The format is in vivo, Wistar rats. As to conditions: male, Wistar, rat, retina, other: intraocular injection, 5 μL of 0.5% solution per eye; Day 7 after intraocular injection of 0.5% (5 μL per eye); read-out: retinal drug concentration. The source says:
1.1 Experimental aminals: SPF-grade male Wistar rats weighed 180-220 g.
1.2 Drugs and reagents: Compound 71; sodium chloride injection (Shandong Qidu Pharmaceutical Co., Ltd., Batch No.: 3B151014124); acetonitrile (chromatographically pure, TEDIA, USA); methanol (chromatographically pure, SIGMA-ALDRICH product); triethylamine (analytically pure, Hangzhou Gaojing Fine Chemical Co., Ltd.).
1.3 Experimental grouping and administration: according to the sampling time, 33 male Wistar rats were divided into 11 groups (three rats per group) of: (1) control group; (2) 0 h; (3) 2 h; (4) 6 h; (5) 24 h; (6) 48 h; (7) 72 h; (8) 5 d; (9) 7 d; (10) 10 d; (11) 14 d. Three rats in the control group were injected with solvent (sterile normal saline) intraocularly, and the remaining 30 rats were injected with Compound 71 intraocularly at a concentration of 0.5% by using a 5 μL microinjector, and 5 μL of drug was injected per bulbus oculi.
1.4 Sampling and detection index: The retina of the rat in the control group was taken on Day 14 (14 d), and the retina of the remaining 30 rats was taken at the corresponding time points. The retina were frozen in liquid nitrogen, and then subjected to the subsequent HPLC detection.
1.5.1 Chromatographic conditions: The mobile phase was chromatographic grade acetonitrile-water=25-75 (v/v). The flow rate was 0.5 mL/min. The column temperature was 25° C. The UV detection wavelength was 254 nm. The injection volume was 20 μL.
1.5.2 Sample processing and preparation: the sample of the rat retina was taken out from the ultra-low temperature (−80° C.) refrigerator, accurately weighed and placed in a glass homogenizer, and ethyl acetate as an organic solvent pre-cooled in a 4° C. refrigerator was added at a ratio of 100 mL/g. The homogenizer was placed in an ice bath for homogenization. After homogenization, all the homogenate was poured into a 5 mL stoppered centrifuge tube. The centrifugation was performed at a low temperature of 4° C. for 5 min (5000 r/min). All the organic phase as the upper layer was accurately taken out and placed in a glass tube with conical bottom. The remaining residue of retina was extracted with 2 mL ethyl acetate repeatedly once. After centrifugation, the two organic phases were combined. Then, the centrifuge tube with conical bottom was blowed for dryness in a nitrogen flow in a 45° C. water bath. The residue was redissolved with 0.1 mL of chromatographic methanol, vortex mixed for 1 min, and centrifuged for 5 min at a high speed of 18000 r/min. 20 μL of the supernatant was taken, and analyzed in a high-performance liquid chromatography system.
1.5.3 Sample determination: After intraocular injection of 5 μL of 0.5% Compound 71, the retina was taken at different time points to analyze the drug content of the test compound in the retina.
1.5.4 Experimental results and conclusions: According to the retinal drug concentration-time curve, it is in conformity to the non-absorption two-compartment model. According to the pharmacokinetic non-absorption two-compartment model theory, the pharmacokinetic parameters of the drug were calculated.

The test system of data set [2] is rat model of acute lung injury. Briefly: Rat model of LPS-induced acute lung injury. Set-up: IL-6 (serum) / IL-6 (homogenate of lung tissue) / IL-6 (bronchoalveolar lavage fluid) / TNF-α (serum) / TNF-α (homogenate of lung tissue) / TNF-α (bronchoalveolar lavage fluid): unit not given here. Format: in vivo, Wistar rats. The conditions noted are these: ELISA; test drug 30 mg/kg i.p. 2 h before and 1 h after LPS; 12 h after modeling. The procedure: 1. Experimental aminals: SPF-grade male Wistar rats, weighed 180-220 g, 6-8 weeks old.
3. Establishment of animal model: The rats were adaptively fed for one week. After the animals were anesthetized, 3 mg/kg LPS (B8) was injected intratracheally to prepare the rat model of acute lung injury.
4. […] At 2 hours before modeling (before tracheal injection of LPS), the test drug (30 mg/kg, the vehicle was 0.3% DMSO in saline) was intraperitoneally injected. At 1 hour after modeling, the test drug was administered once again (at the same dose). At 12 hours after modeling, the animals were sacrificed, and the samples were collected for the tests of various indexes. […]
5.2 ELISA method: 5 rats per group. The serum, alveolar lavage fluid, and tissue homogenate of one lung of each of the rats were subjected to ELISA assay to determine the TNF-α and IL-6 levels.
On the technique in general: An ELISA detects its analyte on a solid surface through an enzyme-linked reagent.

Data set [3] deals with rat model of diabetic retinopathy. Briefly: Rat model of diabetic retinopathy (STZ). Format: in vivo, Wistar rats. The conditions noted are these: Concanavalin A/FITC; 14 days after intravitreal injection; compounds 0.25%, dexamethasone 0.1%. The procedure:
3.1 Laboratory animals: SPF-grade male Wistar rats, weighed 180-220 g.
3.3 Animal modeling and grouping: After one week of adaptive feeding, 134 male Wistar rats (weighed 220-260 g) were administered 65 mg/kg of STZ by one-time intraperitoneal injection to prepare a rat model of type I diabetic. The rats were fasting but water was allowable overnight for 15 h. The formulated STZ solution was intraperitoneally injected according to body weight. After 1 h, the diet was resumed and blood glucose was measured at 72 h. The successfully modeled diabetic rats (120 rats) were selected for continued feeding, and randomly divided into the following 6 groups according to blood glucose (20 rats per group), plus a group of normal rats with no STZ injected as a negative control group.
3.4 Administration: The rats continued to be fed until blood glucose was measured once before administration. After blood glucose reached the standard, drugs were intravitreally injected, and indexs were subsequently tested after 14 days. Blood glucose was measured once before sampling.
3.5 Evans blue staining method (7 groups, 6 rats per group): Evans blue was intravenously injected. 2 hours later, normal saline was perfused into the left ventricle. The retina was taken to compare between the stained area and the unstained area to detect retinal vascular permeability.
3.6 Retinal leukocyte stasis detection method (7 groups, 6 rats per group): PBS was perfused into the left ventricle for 1 min to remove red blood cells and other substances. Concanavalin A (FITC (Sigma, C7642) was perfused (20 μg/ml in PBS, 5 mg/kg) to mark adherent leukocytes. 4% PFA was perfused for 4 min for fixation. 1% Albumin (Sigma, A6414) (in PBS) was perfused for 1 min, and then PBS was perfused for 2 min. The retina was taken for retinal wholemount. Thereafter, the stasis of leukocytes on the vascular endothelium was observed under a fluorescence microscope. […]

Data set [4] concerns mouse model of ragweed pollen-induced allergic conjunctivitis. Briefly: Mouse model of ragweed pollen-induced allergic conjunctivitis. Format: in vivo, Balb/c mice. The protocol:
SPF-grade Balb/c mice (half male and half female, 6-8 weeks old) were used as experimental animals. On Day 0 and Day 6, ragweed pollen footpad injection was injected subcutaneously into the footpads of mice for sensitization (65 μl per mouse). On Days 10-14, in the model group, eye drop of ragweed pollen was applied to both eyes of the mice (10 μl per mouse) once a day. The eye drops were applied for 5 consecutive days to trigger local allergic conjunctivitis (Wu B, et al., Frontiers in Immunology, 2021, 12:4754). […] On Day 14, within 30 minutes after the final challenge, the ocular clinical symptoms of the mice were observed under a microscope and scored according to the scoring criteria reported by Magone et al. (MerayoLloves J, et al., J Allergy Clin Immunol (1996) 97(5):1129-40; Magone M T, et al., Clin Immunol Immunopathol (1998) 87(1):75-84), the allergic response of the eyes were observed, including 4 indexes: conjunctival edema, conjunctival congestion, eyelid congestion and edema, and tearing. The scores were recorded as 0-3 points according to the severity (including none, mild, moderate and severe). The left eye of the mouse was taken with the eyelid (keeping the conjunctiva intact), fixed with polyformaldehyde, sectioned in paraffin, Hematoxylin-Eosin stained (HE stained), and toluidine blue stained (for detection of mast cells). Photographs were taken to analyze the inflammatory cell infiltration of the conjunctival tissue, and observe whether the mast cells in the conjunctiva aggregated and whether a phenomenon of degranulation occurred. The expression of allergic indicators IL-4 and IgE in the conjunctival tissue was detected by immunohistochemistry.
The mouse eye, including the eyelids (with intact conjunctiva), was sectioned after deparaffinization, and subjected to antigen retrieval and serum blocking.
Diluted IL-4 or IgE antibodies were added and incubated overnight. After incubation with secondary antibodies, DAB staining was performed, followed by counterstaining with hematoxylin. The slides were then mounted and observed under an […], with photographs taken. Semi-quantitative analysis was conducted using Image-J software. Based on the cumulative optical density and regional area values of each image, the average optical density was calculated to detect the positive expression of IL-4 or IgE.

Where [5] appears, read: immunohistochemistry, dexamethasone 0.1% eye drop.

What is called IC50 is the concentration at which inhibition is half-maximal. As to `COc1ccc(-c2ccc(NC(=O)N3CCC(C(F)(F)F)CC3)cc2-c2nn[nH]n2)cc1OC` [Compound 2, N-(3′,4′-dimethoxy-2-(2H-tetrazol-5-yl)-[1,1′-biphenyl]-4-yl)-4-(trifluoromethyl)piperidine-1-carboxamide], the IC50 at human B1R stood at 0.148 µM. Moreover, the concentration at 7 d in data set [1] came out at 1540 nM.

`C[C@@H]1C[C@H]2[C@@H]3CCC4=CC(=O)C=C[C@]4(C)[C@@]3(F)[C@@H](O)C[C@]2(C)[C@@]1(O)C(=O)CO` [Dexamethasone, dexamethasone, reference compound]: in data set [2], the “IL-6 (bronchoalveolar lavage fluid)” value was found to be 115.59 ± 67.57, the “IL-6 (homogenate of lung tissue)” value worked out at 150.17 ± 100.46, the “IL-6 (serum)” value is 255.58 ± 109.87 and the “TNF-α (bronchoalveolar lavage fluid)” value was 13.62 ± 7.33. Also, in data set [2], the “TNF-α (homogenate of lung tissue)” value is on record as 19.17 ± 7.55 and the “TNF-α (serum)” value is reported as 57.26 ± 19.27. Moreover, the “retinal leukocyte stasis, Leukocyte count” value in data set [3] is on record as 4.17 ± 3.21. Besides, the Clinical symptom score in data set [4] (0.1% dexamethasone eye drop, twice a day for 14 days, Day 14 within 30 minutes after final challenge) is listed as 4.75 ± 0.51. In data set [4] (setting [5]), the “expression of IL-4 in ocular tissue (average optical density)” value stood at 0.23±0.09 and the “expression of IgE in ocular tissue (average optical density)” value is recorded as 0.53±0.11.
